Reference: patent US10815276B2, “Cell penetrating peptides and methods of making and using thereof” (Entrada Therapeutics, Inc., priority 2014, dated 2020)
Starred links: 1 amine or outer side, 2 acyl side, 3 side chain; linkers in the order of their positions; H or OH if unused. Positions of bridges follow the written chain, without caps; N, C: chain ends. Non-standard residues stand in square brackets, D forms with d. Residues, ends and D or L forms follow the SMILES beside them. Trimesoyl = O=C(c1cc(C(=O)[*:2])cc(C(=O)[*:3])c1)[*:1]; F2Pmp = N[C@@H](Cc1ccc(C(F)(F)P(=O)(O)O)cc1)C(=O)O; 2Nal = N[C@@H](Cc1ccc2ccccc2c1)C(=O)O; Phg = N[C@H](C(=O)O)c1ccccc1; Pip = O=C(O)[C@@H]1CCCCN1; Dap = NC[C@H](N)C(=O)O

Tests used:
PTPH1 = PTPH1 (Homo sapiens, UniProt P26045); test: PTP inhibition assay (pNPP); format: biochemical; conditions: 1 μM inhibitor
Sequence of PTPH1 (P26045 whole entry, species assumed): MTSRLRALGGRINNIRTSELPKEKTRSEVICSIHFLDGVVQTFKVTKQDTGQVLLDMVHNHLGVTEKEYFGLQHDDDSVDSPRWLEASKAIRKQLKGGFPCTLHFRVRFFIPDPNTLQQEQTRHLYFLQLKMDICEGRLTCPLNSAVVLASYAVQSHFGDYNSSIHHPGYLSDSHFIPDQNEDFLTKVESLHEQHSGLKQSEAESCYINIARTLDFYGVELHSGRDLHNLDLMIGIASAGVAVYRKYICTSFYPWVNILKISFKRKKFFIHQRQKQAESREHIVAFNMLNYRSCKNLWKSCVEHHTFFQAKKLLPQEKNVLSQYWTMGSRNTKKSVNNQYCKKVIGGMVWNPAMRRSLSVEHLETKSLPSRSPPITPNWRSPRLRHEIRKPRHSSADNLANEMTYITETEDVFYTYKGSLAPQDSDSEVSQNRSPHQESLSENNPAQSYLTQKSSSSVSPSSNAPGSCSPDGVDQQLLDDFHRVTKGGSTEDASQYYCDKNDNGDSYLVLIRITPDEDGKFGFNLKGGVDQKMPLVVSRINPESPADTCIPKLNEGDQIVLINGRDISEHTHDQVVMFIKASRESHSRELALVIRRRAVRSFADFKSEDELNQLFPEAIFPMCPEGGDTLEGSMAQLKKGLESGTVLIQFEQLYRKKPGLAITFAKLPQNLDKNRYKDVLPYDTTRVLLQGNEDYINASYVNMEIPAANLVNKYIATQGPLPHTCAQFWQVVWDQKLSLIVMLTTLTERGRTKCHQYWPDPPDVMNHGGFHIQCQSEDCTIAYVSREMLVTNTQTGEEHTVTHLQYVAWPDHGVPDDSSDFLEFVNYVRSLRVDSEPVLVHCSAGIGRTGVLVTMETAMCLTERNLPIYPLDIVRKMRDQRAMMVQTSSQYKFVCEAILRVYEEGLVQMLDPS
Experimental: (§1) PTP assays were performed in a quartz microcuvette (total volume 150 μL). The reaction mixture contains 100 mM Tris-HCl, pH 7.4, 50 mM NaCl, 2 mM EDTA, 1 mM TCEP, 0-1 μM of PTP inhibitor, and 500 μM para-nitrophenyl phosphate (pNPP). The enzymatic reaction was initiated by the addition of PTP (final concentration 15-75 nM) and monitored continuously at 405 nm on a UV-VIS spectrophotometer. Initial rates were calculated from the reaction progress curves (typically <60 s). The half-maximal inhibition constant (IC50) was defined as the concentration of an inhibitor that reduced the enzyme activity to 50% and was obtained by plotting the rates (V) against the inhibitor concentration [I] and fitting the data against the equation

SHP1 = SHP1 (Homo sapiens, UniProt P29350); test: PTP inhibition assay (pNPP); format: biochemical; conditions: 1 μM inhibitor; read-out: Inhibition of SHP-1
Sequence of SHP1 (P29350 whole entry): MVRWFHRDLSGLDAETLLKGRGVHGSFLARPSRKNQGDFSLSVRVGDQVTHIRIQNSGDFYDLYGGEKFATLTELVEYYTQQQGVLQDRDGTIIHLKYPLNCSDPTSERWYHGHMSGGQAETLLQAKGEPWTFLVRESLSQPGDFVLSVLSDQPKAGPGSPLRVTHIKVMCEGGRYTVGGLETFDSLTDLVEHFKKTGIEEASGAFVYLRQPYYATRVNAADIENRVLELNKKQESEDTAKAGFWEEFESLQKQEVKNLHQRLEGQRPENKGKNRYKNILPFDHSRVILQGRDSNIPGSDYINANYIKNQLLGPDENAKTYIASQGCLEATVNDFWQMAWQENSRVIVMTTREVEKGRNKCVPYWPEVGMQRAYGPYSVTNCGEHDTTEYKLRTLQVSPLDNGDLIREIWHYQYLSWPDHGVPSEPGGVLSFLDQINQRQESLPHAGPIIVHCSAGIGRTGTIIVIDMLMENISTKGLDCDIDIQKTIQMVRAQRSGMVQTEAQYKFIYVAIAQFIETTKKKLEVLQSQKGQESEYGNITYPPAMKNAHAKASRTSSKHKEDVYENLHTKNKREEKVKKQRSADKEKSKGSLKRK
Experimental: as §1

PTPRC = PTPRC (Homo sapiens, UniProt P08575); test: PTP inhibition assay (pNPP); format: biochemical; conditions: 1 μM inhibitor
Sequence of PTPRC (P08575 26-1306, species assumed): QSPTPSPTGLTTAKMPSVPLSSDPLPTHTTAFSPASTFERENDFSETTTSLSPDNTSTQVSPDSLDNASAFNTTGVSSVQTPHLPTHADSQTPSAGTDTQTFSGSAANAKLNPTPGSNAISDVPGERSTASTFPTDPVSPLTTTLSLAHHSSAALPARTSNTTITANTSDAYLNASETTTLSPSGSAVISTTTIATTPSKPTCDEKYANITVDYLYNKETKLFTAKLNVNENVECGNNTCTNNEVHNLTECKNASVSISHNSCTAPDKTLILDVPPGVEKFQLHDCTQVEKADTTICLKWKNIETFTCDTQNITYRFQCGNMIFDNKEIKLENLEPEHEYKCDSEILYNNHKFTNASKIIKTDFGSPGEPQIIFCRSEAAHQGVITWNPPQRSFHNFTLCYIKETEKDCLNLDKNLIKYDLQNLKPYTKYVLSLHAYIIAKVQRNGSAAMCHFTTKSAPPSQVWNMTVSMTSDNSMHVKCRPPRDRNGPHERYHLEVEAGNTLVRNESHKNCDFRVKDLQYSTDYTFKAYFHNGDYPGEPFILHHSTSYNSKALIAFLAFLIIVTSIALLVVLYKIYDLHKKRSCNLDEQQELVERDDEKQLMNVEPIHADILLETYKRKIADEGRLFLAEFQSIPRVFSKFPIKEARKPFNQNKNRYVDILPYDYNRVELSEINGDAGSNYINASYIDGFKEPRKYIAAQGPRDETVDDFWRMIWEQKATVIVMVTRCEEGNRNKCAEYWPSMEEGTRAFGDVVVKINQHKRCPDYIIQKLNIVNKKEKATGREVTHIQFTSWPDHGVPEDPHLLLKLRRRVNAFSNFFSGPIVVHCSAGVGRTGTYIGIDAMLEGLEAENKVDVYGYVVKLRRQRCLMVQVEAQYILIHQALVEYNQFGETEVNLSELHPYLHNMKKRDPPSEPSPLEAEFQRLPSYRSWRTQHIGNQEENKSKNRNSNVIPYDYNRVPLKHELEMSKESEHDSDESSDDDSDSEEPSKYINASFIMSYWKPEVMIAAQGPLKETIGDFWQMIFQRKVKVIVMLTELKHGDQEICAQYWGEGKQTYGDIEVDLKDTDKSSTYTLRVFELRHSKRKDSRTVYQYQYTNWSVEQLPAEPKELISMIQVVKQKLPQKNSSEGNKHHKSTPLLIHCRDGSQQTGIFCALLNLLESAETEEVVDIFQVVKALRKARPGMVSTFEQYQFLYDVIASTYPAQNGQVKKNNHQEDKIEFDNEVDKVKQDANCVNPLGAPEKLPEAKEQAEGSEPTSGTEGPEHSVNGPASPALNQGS
Experimental: as §1

HePTP = HePTP (Homo sapiens, UniProt P35236); test: PTP inhibition assay (pNPP); format: biochemical; conditions: 1 μM inhibitor
Sequence of HePTP (P35236 whole entry, species assumed): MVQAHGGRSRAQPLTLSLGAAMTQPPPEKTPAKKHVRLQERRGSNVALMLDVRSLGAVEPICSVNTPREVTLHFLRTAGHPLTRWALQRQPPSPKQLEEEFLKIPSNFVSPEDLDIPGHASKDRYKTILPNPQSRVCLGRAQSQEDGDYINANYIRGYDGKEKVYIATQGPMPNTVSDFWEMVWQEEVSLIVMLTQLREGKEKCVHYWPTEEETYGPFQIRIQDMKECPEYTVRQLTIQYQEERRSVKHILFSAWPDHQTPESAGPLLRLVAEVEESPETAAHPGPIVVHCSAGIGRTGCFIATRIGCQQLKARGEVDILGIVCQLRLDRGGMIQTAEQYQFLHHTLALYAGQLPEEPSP
Experimental: as §1

PTPRO = PTPRO (Homo sapiens, UniProt Q16827); test: PTP inhibition assay (pNPP); format: biochemical; conditions: 1 μM inhibitor
Sequence of PTPRO (Q16827 30-1216): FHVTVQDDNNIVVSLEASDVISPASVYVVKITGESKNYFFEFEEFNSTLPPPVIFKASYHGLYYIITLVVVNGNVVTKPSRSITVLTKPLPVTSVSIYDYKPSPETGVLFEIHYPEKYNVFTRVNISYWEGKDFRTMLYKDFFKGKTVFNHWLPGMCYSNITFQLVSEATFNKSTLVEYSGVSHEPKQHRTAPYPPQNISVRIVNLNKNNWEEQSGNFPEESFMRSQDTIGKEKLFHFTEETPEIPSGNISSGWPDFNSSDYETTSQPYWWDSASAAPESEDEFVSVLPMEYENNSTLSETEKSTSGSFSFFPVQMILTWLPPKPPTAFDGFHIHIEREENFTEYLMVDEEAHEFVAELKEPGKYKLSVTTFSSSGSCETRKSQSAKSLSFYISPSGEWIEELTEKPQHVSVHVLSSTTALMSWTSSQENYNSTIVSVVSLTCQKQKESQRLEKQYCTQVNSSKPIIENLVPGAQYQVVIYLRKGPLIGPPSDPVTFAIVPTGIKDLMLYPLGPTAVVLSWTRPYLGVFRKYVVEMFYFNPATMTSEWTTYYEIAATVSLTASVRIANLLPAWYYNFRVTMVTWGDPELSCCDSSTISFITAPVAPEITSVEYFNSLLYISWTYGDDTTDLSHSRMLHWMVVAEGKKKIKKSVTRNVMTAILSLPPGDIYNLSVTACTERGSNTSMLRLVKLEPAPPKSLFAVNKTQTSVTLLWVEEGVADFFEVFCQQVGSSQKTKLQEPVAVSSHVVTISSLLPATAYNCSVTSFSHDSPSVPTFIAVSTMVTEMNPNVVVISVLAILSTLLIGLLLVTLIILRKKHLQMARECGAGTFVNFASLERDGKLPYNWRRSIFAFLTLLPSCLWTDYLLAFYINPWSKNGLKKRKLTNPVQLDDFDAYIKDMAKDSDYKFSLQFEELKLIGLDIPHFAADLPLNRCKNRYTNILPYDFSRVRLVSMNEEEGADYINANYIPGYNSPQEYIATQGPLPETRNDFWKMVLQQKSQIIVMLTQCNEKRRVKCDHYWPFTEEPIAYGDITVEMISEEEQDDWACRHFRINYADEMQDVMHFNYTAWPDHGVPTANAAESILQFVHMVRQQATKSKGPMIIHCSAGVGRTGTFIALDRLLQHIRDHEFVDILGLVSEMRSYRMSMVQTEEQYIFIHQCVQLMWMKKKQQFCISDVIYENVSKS
Experimental: as §1

[1] = Serum stability test (human serum); format: in vitro ADME; conditions: 25% human serum (supernatant after centrifugation), 24 h at 37° C., read-out: Degradation in human serum
Experimental: The stability tests were carried by modifying a previously reported procedure (Nguyen, L T et al. PLoS One 2010, 5, e12684). Diluted human serum (25%) was centrifuged at 15,000 rpm for 10 min, and the supernatant was collected. A peptide stock solution was diluted into the supernatant to a final concentration of 5 μM and incubated at 37° C. At various time points (0-24 h), 200-μL aliquots were withdrawn and mixed with 50 μL of 15% trichloroacetic acid and incubated at 4° C. overnight. The final mixture was centrifuged at 15,000 rpm for 10 min in a microcentrifuge, and the supernatant was analyzed by reversed-phase HPLC equipped with a C18 column. The amount of remaining peptide (%) was determined by integrating the area underneath the peptide peak (monitored at 214 nm) and comparing with that of the control reaction (no serum).

A549 lung cancer cells = test: Live-cell confocal microscopy of FITC-labeled PTP1B inhibitors; format: cell-based, human; conditions: 5 μM FITC-labeled inhibitor, 2 h
Experimental: Approximately 5×10^4 A549 cells were seeded in 35-mm glass-bottomed microwell dish (MatTek) containing 1 mL of media and cultured for one day. A549 cells were gently washed with DPBS once and treated with the FITC-labeled PTP1B inhibitors (5 μM), dextran^Rho (1 mg mL^−1) in growth media for 2 h at 37° C. in the presence of 5% CO2. The peptide-containing media was removed and the cells were washed with DPBS three times and incubated for 10 min in 1 mL of DPBS containing 5 μM DRAQS. The cells were again washed with DPBS twice. Then the cells were imaged on a Visitech Infinity 3 Hawk 2D-array live cell imaging confocal microscope (with a 60× oil immersion lens) at 37° C. in the presence of 5% CO2. Live-cell confocal microscopic imaging of HEK293 cells after treatment with FITC-labeled Pin1 inhibitors were similarly conducted.

PTP1B = molecular target: T1, PTP1B (Homo sapiens, UniProt P18031); test: PTP inhibition assay (pNPP); format: biochemical; conditions: monocyclic peptide inhibitors
T1 construct: The gene coding for the catalytic domain of PTP1B (amino acids 1-321) was amplified; made in house; host or cells: prokaryotic vector pET-22b(+)-ybbR
T1 sequence (P18031 1-321): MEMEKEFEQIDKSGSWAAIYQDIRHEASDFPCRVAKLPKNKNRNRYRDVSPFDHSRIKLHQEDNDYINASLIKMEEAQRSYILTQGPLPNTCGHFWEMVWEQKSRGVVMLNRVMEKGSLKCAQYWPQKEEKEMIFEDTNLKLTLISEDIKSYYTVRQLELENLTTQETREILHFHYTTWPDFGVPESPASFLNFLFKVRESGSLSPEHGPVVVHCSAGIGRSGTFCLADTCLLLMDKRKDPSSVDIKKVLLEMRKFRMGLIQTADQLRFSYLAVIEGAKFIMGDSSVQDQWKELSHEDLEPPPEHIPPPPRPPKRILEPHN
Experimental: as §1
[formula] where V0 is the enzymatic reaction rate in the absence of inhibitor. […] The reaction rate (V) was plotted against the pNPP concentration ([S]) and fitted against the equation
[formula] to obtain the Michaelis constant K. The Ki value was obtained by plotting the K values against the inhibitor concentration [I] and fitted to equation
[formula] where K0 is the Michaelis constant in the absence of inhibitor ([I]=0).

CAL-PDZ domain = CAL-PDZ domain (Homo sapiens, UniProt Q9HD26); test: Fluorescence anisotropy binding to CAL-PDZ; conditions: absence of a reducing agent
Experimental: The full fluorescence anisotropy (FA) titration experiment was performed by incubating 100 nM fluorophore-labeled peptidyl ligands with varying concentrations (0-6 μM) of CAL-PDZ (Cushing, P R et al. […] The FA values were measured on a Molecular Devices Spectramax M5 spectrofluorimeter, with excitation and emission wavelengths at 485 nm and 525 nm, respectively. Equilibrium dissociation constants (KD) were determined by plotting the fluorescence anisotropy values as a function of CAL-PDZ concentration. The titration curves were fitted to the following equation, which assumes a 1:1 binding stoichiometry
where Y is the measured anisotropy at a given CAL-PDZ concentration x; L is the bicyclic peptide concentration; Qb/Qf is the correction fact for dye-protein interaction; Amax is the maximum anisotropy when all the peptides are bound to CAP-PDZ, while Amin is the minimum anisotropy when all the peptides are free.

[2] = test system: Bronchial epithelial CFBE cells; test: Immunofluorescent staining of ΔF508-CFTR; format: cell-based; conditions: 10 μM Corr-4a and 50 μM unlabeled peptide 8
Experimental: After the treatments, cells were fixed in cold methanol for 20 min. The slides were then incubated in 1% BSA/PBS for 10 min, followed by incubation at 37° C. for 1 h with mouse anti-human monoclonal CFTR antibody (R&D Systems). Thereafter, the slides were incubated at 37° C. for 45 min with Alexa Fluor® 488-conjugated anti-mouse IgG2a secondary antibody. Cells were visualized on a Leica TCS SP2 AOBS confocal laser scanning microscope. All measurements were conducted in a double-blinded manner by two independent investigators.

ΔF508-CFTR CFBE cells = test: SPQ intracellular chloride concentration assay; format: cell-based; conditions: 20 μM VX809 and 50 μM peptide 8
Experimental: A SPQ (6-Methoxy-N-(3-sulfopropyl)quinolinium) assay was utilized to estimate the transport activity of ΔF508-CFTR activity in CFBE cells, as the fluorescence of SPQ is negatively correlated with increasing concentration of intracellular chloride (Illsley, N P and Verkman, A S. Biochemistry 1987, 26, 1215). CFBE cells were grown on 96-well plate, which was pre-coated with 1 mg/ml human fibronectin, 3 mg/ml collagen I bovine, and 1 mg/ml bovine serum albumin, using DMEM media supplemented with L-glutamine and 10% FBS. […] Cells were then loaded with SPQ using hypotonic shock at 37° C. for 15 min with 10 mM SPQ containing 1:1 (v/v) Opti-MEM/water solution. The cells were then washed and incubated twice for 10 min with fluorescence quenching NaI buffer (130 mM NaI, 5 mM KNO3, 2.5 mM Ca(NO3)2, 2.5 mM Mg(NO3)2, 10 mM D-glucose, 10 mM N-(2-hydroxyethyl) piperazine-N′-(2-ethanesulfonic) acid (HEPES, pH 7.4)). […] Fluorescence non-specific to CFTR-mediated iodide efflux was measured by incubating the cells with the activation cocktail and the CFTR specific inhibitor GlyH101 (10 μM). The effects of CAL-PDZ inhibitors were evaluated by the fluorescence increasing rate above the basal level. The fluorescence of dequenched SPQ was measured using the plate reader VICTOR X3 (Perkin Elmer) with excitation wavelength at 350 nm and DAPI emission filter. […]

HeLa cells [3] = test: Live-cell confocal microscopy of FITC-labeled peptides; format: cell-based, human; conditions: 5 μM
Experimental: To detect peptide internalization, 1 mL of HeLa cell suspension (5×10^4 cells) was seeded in a 35 mm glass-bottomed microwell dish (MatTek) and cultured overnight. Cells were gently washed with DPBS twice and treated with FITC labeled peptides (5 μM) and dextran^Rho (0.5 mg mL^−1) in phenol-red free DMEM containing 1% serum at 37° C. for 1 h in the presence of 5% CO2. After removal of the medium, the cells were gently washed with DPBS twice and incubated with 5 μM DRAQS in DPBS for 10 min. The cells were again washed with DPBS twice and imaged on a Visitech Infinity 3 Hawk 2D-array live cell imaging confocal microscope. Images were captured under the same parameters and adjusted under the same setting using MetaMorph (Molecular Devices).

HeLa cells [4] = test: MTT proliferation assay with Pin1 inhibitors; format: cell-based, human; conditions: MTT
Experimental: HeLa cells (100 μL/each well, 5×10^4 cells/mL) were seeded in a 96-well culture plate and allowed to grow overnight in DMEM supplemented with 10% FBS. […] After that, 10 μL of a MTT stock solution (5 mg/mL) was added into each well. The plate was incubated at 37° C. for 4 h and 100 μL of SDS-HCl solubilizing solution was added into each well, followed by thorough mixing. The plate was incubated at 37° C. overnight and the absorbance of the formazan product was measured at 570 nm on a Molecular Devices Spectramax M5 plate reader. Each experiment was performed in triplicates and the cells untreated with peptide were used as control.

## CC(C)[C@H]1NC(=O)[C@H](CO)NC(=O)c2cc3cc(c2)C(=O)NC[C@H](NC(=O)[C@H](Cc2c[nH]cn2)NC(=O)[C@H](Cc2ccc(C(F)(F)P(=O)(O)O)cc2)NC(=O)[C@@H]2CCCN2C1=O)C(=O)N[C@@H](CCCNC(=N)N)C(=O)N[C@@H](CCCNC(=N)N)C(=O)N[C@@H](CCCNC(=N)N)C(=O)N[C@@H](CCCNC(=N)N)C(=O)N[C@@H](Cc1ccc2ccccc2c1)C(=O)N[C@@H](Cc1ccccc1)C(=O)N[C@H](C(=O)N[C@@H](CCCCN)C(N)=O)CNC3=O [Bicyclic Inhibitor 4] (S[dV]P[F2Pmp]H[Dap]RRRR[2Nal]F[Dap]K-NH2; linker N-6-13 via Trimesoyl; C-terminus assumed)
PTPH1
  inhibition at 1 µM: < 10%
SHP1
  inhibition at 1 µM: < 10%
PTPRC
  inhibition at 1 µM: < 10%
HePTP
  inhibition at 1 µM: < 10%
PTPRO
  inhibition at 1 µM: < 10%
[1]
  metabolised at 24 h, 5 μM: ~10%

## CC(C)[C@H]1NC(=O)[C@H](CO)NC(=O)[C@H](CCC(N)=O)NC(=O)[C@H](Cc2ccccc2)NC(=O)[C@H](Cc2ccc3ccccc3c2)NC(=O)[C@H](CCCNC(=N)N)NC(=O)[C@H](CCCNC(=N)N)NC(=O)[C@H](CCCNC(=N)N)NC(=O)[C@H](CCCNC(=N)N)NC(=O)[C@H](Cc2c[nH]cn2)NC(=O)[C@H](Cc2ccc(C(F)(F)P(=O)(O)O)cc2)NC(=O)[C@@H]2CCCN2C1=O [Monocyclic Inhibitor 2, cyclo(Ser-D-Val-Pro-F2Pmp-His-Arg-Arg-Arg-Arg-Nal-Phe-Gln)] (cyclo(S[dV]P[F2Pmp]HRRRR[2Nal]FQ))
A549 lung cancer cells
  Cellular uptake (confocal): poor cellular uptake
PTP1B
  IC50: ~30 nM

## C[C@@H]1NC(=O)[C@H](CCCNC(=N)N)NC(=O)[C@H](Cc2ccc3ccccc3c2)NC(=O)[C@@H]2CCCCN2C(=O)[C@@H]([C@H](C)O)NC(=O)[C@H](c2ccccc2)NC(=O)[C@H](Cc2c[nH]cn2)NC(=O)c2cc3cc(c2)C(=O)NC[C@H](NC(=O)[C@@H](C)NC1=O)C(=O)N[C@@H](Cc1ccccc1)C(=O)N[C@@H](Cc1ccc2ccccc2c1)C(=O)N[C@@H](CCCNC(=N)N)C(=O)N[C@@H](CCCNC(=N)N)C(=O)N[C@@H](CCCNC(=N)N)C(=O)N[C@@H](CCCNC(=N)N)C(=O)N[C@H](C(=O)N[C@@H](CCCCN)C(N)=O)CNC3=O [Peptide 8, bicyclo[Tm-(His-Phg-D-Thr-Pip-Nal-Arg-Ala-D-Ala)-Dap-(Phe-Nal-Arg-Arg-Arg-Arg-Dap)]-Lys] (H[Phg][dT][Pip][2Nal]RA[dA][Dap]F[2Nal]RRRR[Dap]K-NH2; linker N-9-16 via Trimesoyl; C-terminus assumed)
CAL-PDZ domain
  Binding to CAL-PDZ domain: no detectable binding
[2]
  ΔF508-CFTR at the cell surface: much greater amounts of the protein at the cell surface
ΔF508-CFTR CFBE cells
  Ion channel activity of ΔF508-CFTR: acted synergistically
HeLa cells [3]
  Intracellular FITC fluorescence (confocal): intense and diffuse fluorescence throughout the entire cell
HeLa cells [4]
  Effect on cell growth: inhibited cell growth, but to a lesser extent than inhibitor 7
